Results reported in patent US20070082073A1, “Catechin Adjuvants” (UNIVERSITY OF SOUTH FLORIDA, priority 2005, published 2007).

Key:
[1] = beagle dogs, cited from earlier work
[2] = estimated/extrapolated EGCg plasma concentration after oral daily dose; assay type: in vivo, dogs
Procedure: Previous reports indicate in vivo therapeutic activity at a plasma concentration of 1 to 10 μM/L (Lambert & Yang, 2003). Swezey et. al (Swezey et al., 2003) studied the absorption, tissue distribution and elimination of 4-[^3H]-epigallocatechin gallate in beagle dogs and estimated that approximately 20% of the oral dose appears in plasma after one hour and a half life of approximately 8 h. Considering an underestimation of this value to be 50 μg/ml and the molecular weight of EGCg of […] a daily dose of 250 mg/kg/day would result in a plasma concentration of approximately 100 μM/L. The doses proposed herein would result in an extrapolated value of more than […] in plasma.

[3] = system: doxorubicin resistance tumors; conditions: animal model; cited from earlier work
[4] = system: opportunistic microbial infections; assay: opportunistic microbial infections in canines treated with antimetabolites for lymphoma; assay type: in vivo
Source text: There is a wide commercial need for inexpensive small molecular weight immunoenhancing drugs to enhance the immune response of individuals treated with antimetabolite anti-cancer drugs, which are immunosuppressive. We are using as the preclinical prototype pet canines treated for lymphoma, one of the most common cancers of dogs as well as humans.

[3H]C1c2c(O)cc(O)cc2OC(c2cc(O)c(O)c(O)c2)C1OC(=O)c1cc(O)c(O)c(O)c1 (stereo not shown) [4-[^3H]-epigallocatechin gallate]
oral dose that appears in plasma ([1]; after one hour): approximately 20% | half life ([1]; oral dose): approximately 8 h

O=C(O[C@@H]1Cc2c(O)cc(O)cc2O[C@@H]1c1cc(O)c(O)c(O)c1)c1cc(O)c(O)c(O)c1 [EGCg, epigallocatechin gallate]
plasma concentration ([2]; daily dose of 250 mg/kg/day): approximately 100 μM/L | plasma value, considered an underestimation ([2]; daily dose of 250 mg/kg/day): 50 µg/mL | extrapolated value in plasma ([2]; the doses proposed herein (6-60 mg/kg/day EGCg, oral)): more than 11 M/L | effect on doxorubicin resistance tumors [3]: revert doxorubicin resistance tumors

COc1cccc2c1C(=O)c1c(O)c3c(c(O)c1C2=O)C[C@@](O)(C(=O)CO)C[C@@H]3O[C@H]1C[C@H](N)[C@H](O)[C@H](C)O1 [adriamycin]
incidence of opportunistic microbial infections [4]: increased incidence of opportunistic microbial infections
